Data published in US20240109912A1, “TRICYCLIC PYRIMIDINES AS CYCLIN-DEPENDENT KINASE 7 (CDK7) INHIBITORS” (JANSSEN PHARMACEUTICA NV, priority 2020, published 2024).
Several values for one entry are separate records, joined by “and”; a condition that tells them apart may be missing. Equal values may be shown once. Read-outs that look alike come from different tables or passages of the source.

Tests used:
[1] = system: RNA polymerase II Serine 5 phosphorylation in A549 cells overexpressing CDK7 mutant (C312S); test: Imaging-based cellular RNA PolII Ser5 phosphorylation assay in A549 cells overexpressing CDK7-mutant (C312S); type: cell-based, human; settings: for IC50: Homo sapiens, A549, A549 cells overexpressing CDK7 mutant (C312S), read-out: CDK7_ A549 mutant hCDK7(pIC50) (converted); for CDK7_ A549 mutant hCDK7(pIC50): A549 cells overexpressing CDK7 mutant (C312S)
Procedure: Data were calculated and analyzed in Phaedra.
From this an IC50 value can be obtained.
In parallel this assay was performed in A549 cells overexpressing CDK7-mutant (C312S) to evaluate the effect of the covalent bond on potency and to screen for potential off-target effects. Mutation of Cysteine to Serine (C312S), a less nucleophilic amino acid, prevents CDK7 inhibitors from covalently binding to CDK7 and from inhibiting CDK7 activity in an irreversible manner. A stably transduced A549 cell pool was generated that overexpresses CDK7 mutant (C312S), but also expresses endogenous CDK7-WT. Covalent binders targeting the cysteine at position 312 will show a shift in potency in A549 cells overexpressing mutant C312S CDK7.

[2] = system: RNA polymerase II Serine 5 phosphorylation (CDK7) in A549 cells
[3] = molecular target: CDK7/cyclinH/MAT1 trimeric complex (Homo sapiens (Human), UniProt P50613); test: In vitro CDK7 assay, potency of irreversible covalent inhibitors (kinact/KI)
[4] = CDK7 (20 nM enz.) (KI, μM), 20 nM enz.
[5] = read-out: CDK7 (20 nM enz.) (kinact, s^−1), 20 nM enz.
[6] = read-out: CDK7 (20 nM enz.) (kinact/ KI, M^−1*s^−1), 20 nM enz.
[7] = read-out: CDK7 (kinact, s^−1), Table B
[8] = read-out: CDK7 (kinact/KI, M^−1*s^−1), Table B

Sequence of CDK7/cyclinH/MAT1 trimeric complex (P50613 whole entry): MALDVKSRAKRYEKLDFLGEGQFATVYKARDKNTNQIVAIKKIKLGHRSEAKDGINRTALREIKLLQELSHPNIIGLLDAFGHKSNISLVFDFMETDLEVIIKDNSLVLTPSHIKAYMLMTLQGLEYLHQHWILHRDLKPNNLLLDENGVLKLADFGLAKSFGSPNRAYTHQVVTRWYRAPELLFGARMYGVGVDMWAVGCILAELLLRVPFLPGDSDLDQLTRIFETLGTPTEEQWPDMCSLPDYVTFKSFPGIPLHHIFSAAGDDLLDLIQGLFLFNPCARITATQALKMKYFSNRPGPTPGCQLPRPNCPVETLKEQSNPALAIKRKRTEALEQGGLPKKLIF
Sequence of CDK7/cyclinH/MAT1 trimeric complex (P51946 whole entry partner): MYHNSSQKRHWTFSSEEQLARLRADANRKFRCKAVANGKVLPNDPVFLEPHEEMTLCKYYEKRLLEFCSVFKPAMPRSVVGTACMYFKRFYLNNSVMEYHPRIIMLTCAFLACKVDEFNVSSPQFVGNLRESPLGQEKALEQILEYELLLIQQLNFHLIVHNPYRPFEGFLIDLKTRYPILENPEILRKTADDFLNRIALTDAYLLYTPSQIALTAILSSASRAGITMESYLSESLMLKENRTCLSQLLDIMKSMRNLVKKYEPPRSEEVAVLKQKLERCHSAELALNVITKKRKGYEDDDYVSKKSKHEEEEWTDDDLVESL
Sequence of CDK7/cyclinH/MAT1 trimeric complex (P51948 whole entry partner): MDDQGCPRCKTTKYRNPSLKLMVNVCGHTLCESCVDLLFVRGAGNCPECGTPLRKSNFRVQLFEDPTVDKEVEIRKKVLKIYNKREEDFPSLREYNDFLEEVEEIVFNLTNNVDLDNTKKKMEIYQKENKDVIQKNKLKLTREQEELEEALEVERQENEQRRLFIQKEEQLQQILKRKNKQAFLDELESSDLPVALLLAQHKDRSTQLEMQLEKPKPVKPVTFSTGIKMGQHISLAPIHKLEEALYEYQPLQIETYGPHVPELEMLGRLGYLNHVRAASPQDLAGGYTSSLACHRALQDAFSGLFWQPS

IC50 [1] | IC50 [2] | Ki [3, 4] | kinact [3, 5] | kinact/KI [3, 6] | Compound | other results
> 10000 nM | 933 nM | 1.04 µM | 6.83e-05 s⁻¹ | 65.7 M⁻¹ s⁻¹ | C=CC(=O)N1CC[C@@H](N2CC(c3cc(F)c4c(c3)Nc3ncnc(N5CCOCC5)c3CO4)C2)C1 (single isomer, unassigned) [compound 55] | 
> 10000 nM | 363 nM | 0.31 µM | 4.82e-05 s⁻¹ | 156 M⁻¹ s⁻¹ | C=CC(=O)N1CC(N2CCC(c3cc(C)c4c(c3)Nc3ncnc(-c5cn(C)nc5C)c3CO4)CC2)C1 [compound 81] | 
> 10000 nM | 759 nM | 0.686 µM | 8.88e-05 s⁻¹ | 129 M⁻¹ s⁻¹ | C=CC(=O)N1CCC(N2CC(c3cc(C)c4c(c3)Nc3ncnc(N5CCOCC5)c3CO4)C2)C(F)C1 (stereo not shown) [compound 28] | 
> 10000 nM | 4570 nM | 0.189 µM | 3.93e-05 s⁻¹ | 209 M⁻¹ s⁻¹ | C=CC(=O)N1CC[C@@H](N2CC(c3cc4c(c(C)n3)OCc3c(ncnc3N3CCS(=O)(=O)CC3)N4)C2)C1 (single isomer, unassigned) [compound 79] | 
> 10000 nM | 1660 nM | 1.24 µM | 3.75e-05 s⁻¹ | 30.2 M⁻¹ s⁻¹ | C=CC(=O)N1CCC(N2CC(c3cc(C#N)c4c(c3)Nc3ncnc(-c5cnn(C)c5)c3CO4)C2)CC1 [compound 73] | 
 | 28.2 nM and ~31.6 nM |  |  |  | C=CC(=O)N1CC[C@H](N2CC(c3cc(C)c4c(c3)Nc3ncnc(N5CCS(=O)(=O)CC5)c3[C@@H](C)O4)C2)C1 (single isomer, unassigned) [compound 121] | CDK7_ A549 mutant hCDK7(pIC50) [1]: <5; CDK7 (20 nM enz.) (kinact/ KI, M^−1*s^−1) ([3]; 20 nM enz.): 611.255 M⁻¹ s⁻¹; CDK7 (20 nM enz.) (kobs/[I], M^−1*s^−1) ([3]; 20 nM enz.): 1089.23 M⁻¹ s⁻¹
~8910 nM | 891 nM |  |  |  | C=CC(=O)N1CC[C@H](N2CCC(c3ccc4c(c3)Nc3ncnc(N5CCOCC5)c3CO4)CC2)C1 [compound 5] | Ki ([3]; CDK7 (KI(μM)), Table B): 0.595 µM; kinact [3, 7]: 0.000243 s⁻¹; kinact/KI [3, 8]: 408 M⁻¹ s⁻¹
> 10000 nM | 102 nM | 0.108 µM | 5.21e-05 s⁻¹ | 485 M⁻¹ s⁻¹ | CC#CC(=O)N1CC(N2CCC(c3cc(C)c4c(c3)Nc3ncnc(N5CCOC6(COC6)C5)c3CO4)CC2)C1 [compound 195] | 
> 10000 nM | 191 nM | 0.1 µM | 8.29e-05 s⁻¹ | 809 M⁻¹ s⁻¹ | C#Cc1cc(C2CCN(C3CN(C(=O)C#CC)C3)CC2)cc2c1O[C@@H](C)c1c(ncnc1N1CCS(=O)(=O)CC1)N2 [compound 191] | 
> 10000 nM | 288 nM | 0.112 µM | 0.000116 s⁻¹ | 1030 M⁻¹ s⁻¹ | C=CC(=O)N1CC(N2CC(c3cc(C)c4c(c3)Nc3ncnc(N5CCS(=O)(=O)CC5)c3CO4)C2)C1 [compound 111] | 
> 10000 nM | 46.8 nM | 0.0908 µM | 7.15e-05 s⁻¹ | 788 M⁻¹ s⁻¹ | CC#CC(=O)N1CCC(N2CC=C(c3cc(C)c4c(c3)Nc3ncnc(N5CCS(=O)(=O)CC5)c3CO4)CC2)CC1 [compound 138] | 
> 10000 nM | 115 nM | 0.0135 µM | 9.88e-05 s⁻¹ | 7340 M⁻¹ s⁻¹ | [2H]C1(N2CCC(c3cc(C)c4c(c3)Nc3ncnc(N5CCS(=O)(=O)CC5)c3[C@@H](C)O4)CC2)CN(C(=O)C#CC)C1 [compound 160] | 
> 10000 nM | 1260 nM | 1.28 µM | 4.27e-05 s⁻¹ | 33.4 M⁻¹ s⁻¹ | C=CC(=O)N1CC(N2CCC(c3cc(C)c4c(c3)Nc3ncnc(-c5cncc(OCC)c5)c3CO4)CC2)C1 [compound 82] | 
> 10000 nM | 457 nM and 282 nM | 0.191 µM and 0.498 µM | 7.04e-05 s⁻¹ | 368 M⁻¹ s⁻¹ | C=CC(=O)N1CC[C@H](N2CCC(c3cc(C)c4c(c3)Nc3ncnc(N5CCOCC5)c3CO4)CC2)C1 [compound 12] | CDK7 (20 nM enz.) (kinact, s^−1) ([3]; 20 nM enz.): 0.0001275 s⁻¹; CDK7 (20 nM enz.) (kinact/ KI, M^−1*s^−1) ([3]; 20 nM enz.): 256.184 M⁻¹ s⁻¹
> 10000 nM | ~46.8 nM | 0.00389 µM | 4.73e-05 s⁻¹ | 12200 M⁻¹ s⁻¹ | CC#CC(=O)N1CC(C)(N2CCC(c3cc(C)c4c(c3)Nc3ncnc(N5CCS(=O)(=O)CC5)c3[C@@H](C)O4)CC2)C1 [compound 144] | 
> 10000 nM | ~50.1 nM and ~40.7 nM |  |  |  | C#Cc1cc(C2CCN(C3CN(C(=O)C=C)C3)CC2)cc2c1O[C@@H](C)c1c(ncnc1N1CCS(=O)(=O)CC1)N2 [compound 190] | kinact/KI ([3]; read-out: CDK7 (20 nM enz.) (kobs/[I], M^−1*s^−1), 20 nM enz.): 839 M⁻¹ s⁻¹
> 10000 nM | 912 nM |  |  |  | C=CC(=O)NCCN1CCC(c2ccc3c(c2)Nc2ncnc(N4CCOCC4)c2CO3)CC1 [compound 3] | Ki ([3]; CDK7 (KI(μM)), Table B): 1.03 µM; kinact [3, 7]: 0.000166 s⁻¹; kinact/KI [3, 8]: 161 M⁻¹ s⁻¹
> 10000 nM | 282 nM | 0.121 µM | 3.13e-05 s⁻¹ | 259 M⁻¹ s⁻¹ | C=CC(=O)N1CCC(N2CC(c3cc(C)c4c(c3)Nc3ncnc(N5CCS(=N)(=O)CC5)c3CO4)C2)CC1 [compound 105] | 

IC50 [1] | IC50 [2] | Ki [3, 4] | kinact [3, 5] | kinact/KI [3, 6] | Compound | other results
> 10000 nM | 105 nM |  |  |  | [2H]C([2H])([2H])C#CC(=O)N1CC[C@@H](N2CC(c3cc(C)c4c(c3)Nc3ncnc(N5CCS(=O)(=O)CC5)c3[C@@H](C)O4)C2)C1 (single isomer, unassigned) [compound 165] | 
> 10000 nM | 53.7 nM |  |  |  | [2H]C([2H])([2H])C#CC(=O)N1CC(N2CCC(c3cc(C)c4c(c3)Nc3ncnc(N5CCS(=O)(=O)CC5)c3[C@@H](C)O4)CC2)C1 [compound 164] | 
> 10000 nM | 87.1 nM |  |  |  | C=CC(=O)N1CC(N2CCC(c3cc(C)c4c(c3)Nc3ncnc(N5CCOC6(COC6)C5)c3CO4)CC2)C1 [compound 68] | 
4170 nM | < 2.45 nM |  |  |  | Cc1cc(C2CCN(C3CN(C(=O)C#CCN(C)C)C3)CC2)cc2c1O[C@H](C)c1c(ncnc1N1CCS(=O)(=O)CC1)N2 [compound 169] | 
> 10000 nM | 6170 nM |  |  |  | CC#CC(=O)N1CCOC([C@H]2C[C@@H](c3cc(C)c4c(c3)Nc3ncnc(N5CCS(=O)(=O)CC5)c3[C@@H](C)O4)C2)C1 (single isomer, unassigned) [compound 187] | 
 | 74.1 nM |  |  |  | CC#CC(=O)N1CC(N2CCC(c3cc(C)c4c(c3)Nc3ncnc(N5CCS(=O)(=O)CC5)c3[C@@H](C)O4)CC2)C1 [compound 158] | CDK7_ A549 mutant hCDK7(pIC50) [1]: ~5.22
> 10000 nM | ~56.2 nM |  |  |  | [2H]C([2H])([2H])C#CC(=O)N1CC(C)(N2CCC(c3cc(C)c4c(c3)Nc3ncnc(N5CCS(=O)(=O)CC5)c3[C@@H](C)O4)CC2)C1 [compound 179] | 
2340 nM | 41.7 nM |  |  |  | Cc1cc(C2CCN(C3(C)CN(C(=O)C#CCN(C)C)C3)CC2)cc2c1O[C@H](C)c1c(ncnc1N1CCS(=O)(=O)CC1)N2 [compound 181] | 
> 10000 nM | ~50.1 nM |  |  |  | CC#CC(=O)N1CC[C@@H](N2CCC(c3cc(C)c4c(c3)Nc3ncnc(N5CCS(=O)(=O)CC5)c3CO4)CC2)C1 (single isomer, unassigned) [compound 135] | 
 | 355 nM |  |  |  | CC#CC(=O)N1CC[C@H](N2CC(c3cc(C)c4c(c3)Nc3ncnc(N5CCS(=O)(=O)CC5)c3[C@@H](C)O4)C2)C1 [compound 142] | CDK7_ A549 mutant hCDK7(pIC50) [1]: <5
> 10000 nM | 141 nM |  |  |  | [2H]C([2H])([2H])C#CC(=O)N1CC[C@H](N2CC(c3cc(C)c4c(c3)Nc3ncnc(N5CCS(=O)(=O)CC5)c3[C@@H](C)O4)C2)C1 (single isomer, unassigned) [compound 166] | 
~8320 nM | 64.6 nM |  |  |  | CC#CC(=O)N1CCC(N2CCC(c3cc(C)c4c(c3)Nc3ncnc(N5CCS(=O)(=O)CC5)c3CO4)CC2)C1 (stereo not shown) [compound 152] | 
7240 nM | ~12.9 nM |  |  |  | Cc1cc(C2CN([C@@H]3CCN(C(=O)C#CCCN(C)C)C3)C2)cc2c1O[C@H](C)c1c(ncnc1N1CCS(=O)(=O)CC1)N2 (single isomer, unassigned) [compound 177] | 
1950 nM | < 2.45 nM |  |  |  | CC#CC(=O)N1CCC(N2CCC(c3cc(C)c4c(c3)Nc3ncnc(N5CCS(=O)(=O)CC5)c3[C@@H](C)O4)CC2)CC1 [compound 156] | 
> 10000 nM | 132 nM |  |  |  | CCC#CC(=O)N1CC[C@H](N2CC(c3cc(C)c4c(c3)Nc3ncnc(N5CCS(=O)(=O)CC5)c3[C@@H](C)O4)C2)C1 (single isomer, unassigned) [compound 168] | 
4570 nM | ~14.5 nM |  |  |  | CC#CC(=O)N1CC[C@@](C)(N2CCC(c3cc(C)c4c(c3)Nc3ncnc(N5CCS(=O)(=O)CC5)c3[C@@H](C)O4)CC2)C1 (single isomer, unassigned) [compound 145] | 
> 10000 nM | 813 nM |  |  |  | CC#CC(=O)N1CC(N2CC(c3cc(C)c4c(c3)Nc3ncnc(N5CCS(=O)(=O)CC5)c3CO4)C2)C1 [compound 132] | 
> 10000 nM | > 10000 nM |  |  |  | C=CC(=O)N1CC(N2CCC(c3cc(C)c4c(c3)Nc3ncnc(N5CCC(S(C)(=O)=O)CC5)c3CO4)CC2)C1 [compound 70] | 

Compound | IC50 [1] | IC50 [2] | Ki [3, 4] | kinact [3, 5] | kinact/KI [3, 6] | other results
CC#CC(=O)N1CC(N2C3CCC2CC(c2cc(C)c4c(c2)Nc2ncnc(N5CCS(=O)(=O)CC5)c2[C@@H](C)O4)C3)C1 (mixture of isomers) [compound 183] |  | 347 nM |  |  |  | CDK7_ A549 mutant hCDK7(pIC50) [1]: <5
